Test results reported in US11298561B2, “Method of treating multi-drug resistance biofilm using targeted laser and antibiotics” (priority 2013, dated 2022).
Values joined by “and” are separate entries in the source; they are usually repeats but may differ in a detail not shown here. Equal values may be shown once. Read-outs that look alike come from different tables or passages of the source.

Legend:
[1] = test system: planktonic P. aeruginosa PA 60-65 cultures; test: CFU assay of planktonic P. aeruginosa PA 60-65 cultures; format: cell-based, Pseudomonas aeruginosa; conditions: amikacin 24 h (16-64 μg/mL)
Description: (§1) For planktonic bacteria, broth cultures of SA5120 in TSB and PA 60-65 in BHI were grown for 16-18 h at 37° C. on a shaker at 250 rpm. The cultures were diluted to an OD600 of 0.1 using TSB for SA5120 or BHI for PA 60-65 and incubated at 37° C. for ˜1.5 h to reach an OD600 of 0.3. Samples were treated with antibiotics in triplicate in 5-mL tubes at 37° C. on a shaker at 250 rpm for 24 h, after which 1 mL of culture from each tube was transferred into a fresh tube and centrifuged to pellet the cells. The cell pellets were washed twice in PBS, re-suspended in 1 mL of PBS, serially diluted in PBS, and plated in triplicate on TSA plates. The plates were incubated overnight at 37° C., and the resulting colonies were enumerated and used to calculate CFUs/mL.

[2] = test system: P. aeruginosa PA 60-65 biofilms; test: CFU assay of P. aeruginosa PA 60-65 biofilms; format: cell-based, Pseudomonas aeruginosa; conditions: for reduction in P. aeruginosa biofilm viability (CFU): 24 h
Description: (§2) Two MDR clinical wound isolates, namely, methicillin-resistant S. aureus (MRSA) SA5120 and P. aeruginosa PA 60-65, were received as gifts from a repository at the U.S. Army Institute of Surgical Research (JBSA-Fort Sam Houston, Tex.). Biofilms were established on 5-mm glass discs or in 96-well half-area glass-bottom plates that had been pre-treated for 24 h with 1 mg/mL of fibrinogen. Overnight cultures of SA5120 in tryptic soy broth (TSB) were diluted to an optical density at 600 nm (OD600) of 0.1 using TSB supplemented with 10% human plasma, added to empty wells of a 96-well glass-bottom culture plate or to wells containing 5-mm glass discs, and allowed to grow into biofilms for 24 h at 37° C. under static conditions. For PA 60-65, overnight cultures in brain heart infusion broth (BHI) were diluted 20-fold using 20% BHI in phosphate-buffered saline (PBS) supplemented with 0.2% glucose and 0.4% NaCl and grown to an OD600 of 0.5 at 37° C. with shaking at 250 rpm. The bacterial suspension was diluted to an OD600 of 0.01 in PBS, and 20 μL of inoculant was spotted onto 5-mm glass discs placed in 6-well tissue culture plates. Samples were incubated at room temperature for 2 h to allow cell attachment, rinsed in PBS, and then cultured in 20% BHI/0.2% glucose/0.4% NaCl in PBS for 72 h at 37° C. with shaking at 140 rpm. Biofilms were rinsed in PBS and transferred into 96-well glass-bottom plates for subsequent treatment.
(§3) Biofilms grown on glass discs were pre-treated with tGNPs or non-targeted GNPs at 70 μg/mL in PBS for 2 h (SA5120) or 1 h (PA 60-65). The 1-h pre-treatment period for PA 60-65 was selected based upon results from comparison of biofilm dispersion caused by various tGNP incubation times used in combination with laser irradiation (FIG. 10). […] After treatment, samples were analyzed using confocal microscopy, CFU assays, or scanning electron microscopy (SEM).
Biofilms on glass discs were pre-treated with tGNPs at 70 μg/mL in PBS for 2 h (SA5120) or 1 h (PA 60-65). […] Samples were incubated for 24 h at 37° C. and then analyzed using CFU assays or SEM. […]

[3] = test system: planktonic MRSA SA5120 cultures; test: CFU assay of planktonic MRSA SA5120 cultures; format: cell-based, Staphylococcus aureus; conditions: for reduction in viability of planktonic MRSA cultures (CFU): antibiotic alone, 24 h (vancomycin 100 μg/mL)
Description: as §1, with “Samples were treated with antibiotics in triplicate in 5-mL tubes at 37° C. on a shaker at 250 rpm for 24 h, after which 1 mL of culture from each tube was transferred into a fresh tube and centrifuged to pellet the cells.” left out

[4] = test system: MRSA SA5120 biofilms; format: cell-based, Staphylococcus aureus
Description: as §2
MRSA biofilms in 96-well glass-bottom plates or on 5-mm glass discs were pre-treated with increasing concentrations of tGNPs from 0-100 μg/mL in PBS for 2 h. This 2-h treatment duration was selected based upon results from comparison of the extent of biofilm dispersion caused by different tGNP incubation periods used in combination with laser irradiation (FIG. 9). Following the tGNP pre-treatment, unattached tGNPs were washed away using PBS, and 40 μL of PBS was added to the wells. Biofilms were then irradiated with increasing numbers of laser pulses from 0-100 pulses at 532 nm and a fluence of ˜1.0 J/cm^2 using an Nd:YAG laser system (8-ns pulse, 1 Hz; Quantel, Bozeman, Mont.) and an automated XY-gantry sample positioning system operated through LabVIEW software (National Instruments, Austin, Tex.). After exposure, samples were analyzed using confocal microscopy or colony forming unit (CFU) assays.
as §3, with “10). Following the tGNP pre-treatment, samples were rinsed using PBS, and 40 μL of PBS was added to each well. Biofilms were then exposed to 50 laser pulses at 532 nm or sham exposed as described in Supplementary Materials. Biofilms treated with 50 laser pulses alone or PBS alone (controls) were also included.” for “10).”
Biofilms on glass discs were pre-treated with tGNPs at 70 μg/mL in PBS for 2 h (SA5120) or 1 h (PA 60-65). Samples were rinsed with PBS, 40 μL of PBS was added to each well, and biofilms were then exposed to 50 laser pulses at 532 nm or sham exposed. Biofilms treated with 50 laser pulses alone or PBS alone were also included. […]

[5] = test system: Staphylococcus epidermidis biofilm; conditions: ns-pulsed laser non-thermal shockwaves combined with 24-h gentamicin treatment; cited from earlier work
[6] = GNP-targeted laser therapy followed by 24-h antibiotic treatment at 100 μg/mL

Which “reduction in viability of planktonic P. aeruginosa cultures (CFU)” value [1] does the source give for `NCC[C@H](O)C(=O)N[C@@H]1C[C@H](N)[C@@H](O[C@H]2O[C@H](CN)[C@@H](O)[C@H](O)[C@H]2O)[C@H](O)[C@H]1O[C@H]1O[C@H](CO)[C@@H](O)[C@H](N)[C@H]1O` [amikacin] here?
Its value is about 4 log.

And the “reduction in P. aeruginosa biofilm viability (CFU)” value ([2]; GNP-targeted laser therapy in combination with 8 μg/mL amikacin)?
The value was 5 log.

And the “effect of increasing amikacin from 8 to 16 μg/mL in the combination therapy” value ([2]; P. aeruginosa biofilms, with GNP-targeted laser therapy)?
Its value is “did not further reduce cell viability”.

What about the “reduction in P. aeruginosa biofilm viability (CFU)” value ([2]; amikacin alone, 8 μg/mL) of the same molecule?
The value was about 1 log.

What does the source list for `CN[C@H](CC(C)C)C(=O)N[C@H]1C(=O)N[C@@H](CC(N)=O)C(=O)N[C@H]2C(=O)N[C@H]3C(=O)N[C@H](C(=O)N[C@H](C(=O)O)c4cc(O)cc(O)c4-c4cc3ccc4O)[C@H](O)c3ccc(c(Cl)c3)Oc3cc2cc(c3O[C@@H]2O[C@H](CO)[C@@H](O)[C@H](O)[C@H]2O[C@H]2C[C@](C)(N)[C@H](O)[C@H](C)O2)Oc2ccc(cc2Cl)[C@H]1O` [vancomycin, Vancomycin]?
reduction in viability of planktonic MRSA cultures (CFU) [3]: 4 log and ~3 log; effect of GNP-targeted laser therapy on antibacterial activity of vancomycin against MRSA biofilms ([4]; 24-h vancomycin at 100 or 1000 μg/mL): enhanced the antibacterial activity; reduction in MRSA biofilm viability (CFU) [4, 6]: 2 log

What does the source list for gentamicin?
reduction in viability of planktonic MRSA cultures (CFU) [3]: ~4 log; reduction in Staphylococcus epidermidis biofilm viability [5]: 1 log; reduction in MRSA biofilm viability (CFU) [4, 6]: 4 log; reduction in viable bacteria in MRSA biofilms ([4]; GNP-targeted laser therapy followed by 24-h gentamicin at 100 μg/mL): 99.99%; reduction in MRSA biofilm viability (CFU) ([4]; antibiotic alone, 100 μg/mL, 24 h): 1 log

B1: papain: enzyme used to loosen S. aureus biofilms prior to CFU assay (protein, UniProt P00784 134-345, looked up)
Papain: IPEYVDWRQKGAVTPVKNQGSCGSCWAFSAVVTIEGIIKIRTGNLNEYSEQELLDCDRRSYGCNGGYPWSALQLVAQYGIHYRNTYPYEGVQRYCRSREKGPYAAKTDGVRQVQPYNEGALLYSIANQPVSVVLEAAGKDFQLYRGGIFVGPCGNKVDHAVAAVGYGPNYILIKNSWGTGWGENGYIRIKRGTGNSYGVCGLYTSSFYPVKN
Which “viability of planktonic MRSA cultures” value ([3]; 100 μg/mL papain, 2 or 4 h at 37° C.) does the source give for B1 here?
Its value is “no reduction in cell viability”.
